Source: patent publication US6828111B2, “Three-dimensional in vitro model of human preneoplastic breast disease” (Wayne State University, priority 2000, dated 2004)
“Also recorded” adds a separate entry of the source.

How the values were obtained:
Format in all cases: cell-based, human
EIII8-HUVEC co-cultures [1] = assay: Heterotypic EIII8-HUVEC 3D Matrigel co-culture, morphology; settings: for inhibition of endothelial sprouting and associated ductal-alveolar morphogenesis: 1 nM E2 plus 100-fold molar excess of antiestrogen, day 5
From the text: For heterotypic 3D co-cultures, 5×10^4 MCF10A, MCF10AT1, or EIII8 cells were mixed with an equal number of HUVECs, human breast fibroblasts (reduction mammoplasty, benign or tumor-derived), IMR-90, HT1080 or NIH 3T3 cells. For heterotypic tricultures, MCF10A or EIII8 cells were mixed with equivalent numbers of human breast fibroblasts (reduction mammoplasty, benign or tumor-derived) and HUVECs and seeded onto chamber slides coated with Matrigel as described for homotypic cultures. Typically, heterotypic co-cultures were performed in SFM supplemented with EGF and bFGF since this medium results in optimal viability, growth and 3D organization of both HUVEC and MCF10A cells. Typically, heterotypic cultures were performed in SFM supplemented with EGF and bFGF because it allows optimal viability, growth and 3D organization of HUVEC, fibroblasts and MCF10A cells. Heterotypic co-cultures were routinely maintained up to 3 weeks, and morphological development was analyzed by phase contrast microscopy. F To assess growth effects of E2 on homotypic (EIII8) or heterotypic (EIII8-HUVEC) 3D cultures, 5×10^4 EIII8 cells were seeded alone or mixed with an equivalent number of HUVEC in the appropriate medium in 8-well chamber slides coated with Matrigel as described above. Slides were incubated overnight to allow attachment of the cells, and treated with vehicle (0.01% ethanol, v/v), pure antiestrogen ICI 182,780 alone (100 or 1000 nM (Zeneca Pharmaceuticals, […]2 (0.1, 1 or 10 nM; Sigma Chemical Co., St. Louis, Mo.), or a combination of 1 nM E2 and 100- or 1000-fold molar excess of ICI 182,780. Cultures were incubated at 37° C. for 5 days, after which cell viability was measured with the MTS (3-(4,5-dimethylthiazol-2-yl)-5-(3-carboxymethoxyphenyl)-2-(4-sulfophenyl)-2H-tetrazolium) kit according to the manufacturer's directions (Promega Corp, Madison, Wis.).

Flk-1/KDR = assay: Western blot of Flk-1/KDR in matrix fractions of EIII8-HUVEC 3D cultures; settings: for regulation of Flk-1/KDR protein levels: 10-day old co-cultures
Procedure: (§1) 5×10^4 EIII8 or MCF10A cells were seeded alone or mixed with an equivalent number of HUVEC on Matrigel in SFM media as described above. Cells were incubated for 6 h to attach and the medium was replaced with fresh SFM. After appropriate incubation, the culture media from homotypic and heterotypic co-cultures were collected, centrifuged to remove debris and stored at −20° C. Following removal of culture medium, matrix containing the 3D structures was either solubilized for SDS-PAGE and Western blot analysis or fixed in buffered formalin for evaluation of morphology and distribution of functional markers.
Analysis of expression of VEGF, IL-8, Estrogen receptor (ER) and Flk-1/KDR proteins was carried out by Western analysis with specific antibodies. Aliquots of unconcentrated conditioned media or lysates of 3D cultures containing 20 or 40 μg total protein, respectively, were collected after indicated culture intervals, separated by SDS-PAGE on 12.5% (VEGF), 17% (IL-8) or 7% (ER and Flk-1/KDR) polyacrylamide gels (Laemmli, UK, Nature 227:680-685, 1970), and subjected to Western blot analysis. The following antibodies to human proteins were used: (1) rabbit polyclonal anti-VEGF antisera (recognizes C-terminal epitope of VEGF165, VEGF189 and VEGF206; Oncogene Science), mouse anti-ER mAb (Clone 1D5; reacts with the N-terminal domain or A/B region of the ER; Dako Corp., Carpenteria, Calif.), mouse anti-Flk-1/KDR mAb (Chemicon International, Inc.) and goat polyclonal anti-IL-8 antibody (R&D Systems). Immunoreactive bands were visualized by chemiluminescence, and band intensities were quantitated with a Model 300A densitometer (Molecular Dynamics, Sunnyvale, Calif.).

EIII8 cells = assay: Homotypic EIII8 3D Matrigel culture, phase contrast morphology
[2] = tested on: EIII8+31R+HUVEC tricultures; assay: 3D growth of EIII8+31R+HUVEC tricultures, viable cell count; settings: 1 or 10 nM E2, 6 days, reduction mammoplasty fibroblasts
Procedure: (§2) 3-D cultures were set up by seeding 5×10^4 EIII8, HUVEC, […] or […] (reduction mammoplasty fibroblasts), […] or […] (tumor-derived breast fibroblasts) alone or mixing 5×10^4 EIII8 cells with an equivalent number of […] (or […]) or […] (or […]) in the absence or presence of an equivalent number of HUVEC cells onto chamber slides coated with Matrigel as described above. Cultures were incubated at 37° C. for 6 days, after which the cell viability was measured in the 3-D cultures. The medium was removed, wells were rinsed with phosphate buffered saline, and the Matrigel was digested with dispase for 2 h at 37° C. The digested material was centrifuged at 4000×g for 10 min, and the pellet was treated with trypsin to recover single cells from the 3-D structures. The number of viable cells was determined by trypan blue exclusion in a hemocytometer and results expressed as average±SE from three independent experiments. […]

[3] = tested on: EIII8+38T+HUVEC tricultures; assay: 3D growth of EIII8+38T+HUVEC tricultures, viable cell count
Procedure: as §2

IL-8 = assay: Western blot of IL-8 in culture media of EIII8-HUVEC 3D cultures
Procedure: (§3) 5×10^4 EIII8 or MCF10A cells were seeded alone or mixed with an equivalent number of HUVEC on Matrigel in SFM media as described above. Cells were incubated for 6 h to attach and the medium was replaced with fresh SFM. After appropriate incubation, the culture media from homotypic and heterotypic co-cultures were collected, centrifuged to remove debris and stored at −20° C. Following removal of culture medium, matrix containing the 3D structures was either solubilized for SDS-PAGE and Western blot analysis or fixed in buffered formalin for evaluation of morphology and distribution of functional markers. Analysis of expression of VEGF, IL-8, Estrogen receptor (ER) and Flk-1/KDR proteins was carried out by Western analysis with specific antibodies. […] The following antibodies to human proteins were used: (1) rabbit polyclonal anti-VEGF antisera (recognizes C-terminal epitope of VEGF165, VEGF189 and VEGF206; Oncogene Science), mouse anti-ER mAb (Clone 1D5; reacts with the N-terminal domain or A/B region of the ER; Dako Corp., Carpenteria, Calif.), mouse anti-Flk-1/KDR mAb (Chemicon International, Inc.) and goat polyclonal anti-IL-8 antibody (R&D Systems). Immunoreactive bands were visualized by chemiluminescence, and band intensities were quantitated with a Model 300A densitometer (Molecular Dynamics, Sunnyvale, Calif.).

EIII8-HUVEC co-cultures [4] = assay: 3D growth of EIII8-HUVEC cultures by MTS assay and trypan blue counts
Procedure: To assess growth effects of E2 on homotypic (EIII8) or heterotypic (EIII8-HUVEC) 3D cultures, 5×10^4 EIII8 cells were seeded alone or mixed with an equivalent number of HUVEC in the appropriate medium in 8-well chamber slides coated with Matrigel as described above. Slides were incubated overnight to allow attachment of the cells, and treated with vehicle (0.01% ethanol, v/v), pure antiestrogen ICI 182,780 alone (100 or 1000 nM (Zeneca Pharmaceuticals, […]2 (0.1, 1 or 10 nM; Sigma Chemical Co., St. Louis, Mo.), or a combination of 1 nM E2 and 100- or 1000-fold molar excess of ICI 182,780. Cultures were incubated at 37° C. for 5 days, after which cell viability was measured with the MTS (3-(4,5-dimethylthiazol-2-yl)-5-(3-carboxymethoxyphenyl)-2-(4-sulfophenyl)-2H-tetrazolium) kit according to the manufacturer's directions (Promega Corp, Madison, Wis.). Measurements were made from triplicate sets of wells for each treatment. Background absorbance was corrected by preparing triplicate sets of wells containing only Matrigel (“no cell”) and the same volume of medium and MTS reagent as in experimental wells. Average absorbances from “no cell” wells were subtracted from sample absorbance values containing cells to yield corrected absorbance, and the results represent the average±S.E. of triplicate samples. Each experiment was repeated at least three times. Since the MTS assays performed here differs from routine MTS assays in that they are done on 3D cultures growing in Matrigel rather than monolayers, results of MTS assays were validated by performing direct cell counts of viable cells in the 3D cultures. For this, the medium was removed, wells rinsed with PBS, and Matrigel was digested with dispase for 2 h at 37° C. The digested material was centrifuged at 4000×g for 10 min, and the pellet treated with trypsin to recover single cells from the 3D tubular structures. The number of viable cells was determined by trypan blue exclusion in a hemocytometer. Results were expressed as mean±S.E. from three independent experiments.

VEGF165 = assay: Western blot of VEGF165 in culture media of EIII8-HUVEC 3D cultures
Procedure: as §3

MCF10A-HUVEC co-cultures = assay: Heterotypic MCF10A-HUVEC 3D Matrigel co-culture, morphology
From the text: For heterotypic 3D co-cultures, 5×10^4 MCF10A, MCF10AT1, or EIII8 cells were mixed with an equal number of HUVECs, human breast fibroblasts (reduction mammoplasty, benign or tumor-derived), IMR-90, HT1080 or NIH 3T3 cells. For heterotypic tricultures, MCF10A or EIII8 cells were mixed with equivalent numbers of human breast fibroblasts (reduction mammoplasty, benign or tumor-derived) and HUVECs and seeded onto chamber slides coated with Matrigel as described for homotypic cultures. Typically, heterotypic co-cultures were performed in SFM supplemented with EGF and bFGF since this medium results in optimal viability, growth and 3D organization of both HUVEC and MCF10A cells. Typically, heterotypic cultures were performed in SFM supplemented with EGF and bFGF because it allows optimal viability, growth and 3D organization of HUVEC, fibroblasts and MCF10A cells. Heterotypic co-cultures were routinely maintained up to 3 weeks, and morphological development was analyzed by phase contrast microscopy. F

[5] = tested on: wild type ER protein (67 kDa); assay: Western blot of ER in matrix fractions of EIII8-HUVEC 3D cultures; settings: 100-fold molar excess over E2, day 5; 42 kDa ER-reactive protein appears
Procedure: as §1
Analysis of expression of VEGF, IL-8, Estrogen receptor (ER) and Flk-1/KDR proteins was carried out by Western analysis with specific antibodies. Aliquots of unconcentrated conditioned media or lysates of 3D cultures containing 20 or 40 μg total protein, respectively, were collected after indicated culture intervals, separated by SDS-PAGE on 12.5% (VEGF), 17% (IL-8) or 7% (ER and Flk-1/KDR) polyacrylamide gels (Laemmli, UK, Nature 227:680-685, 1970), and subjected to Western blot analysis. […] Immunoreactive bands were visualized by chemiluminescence, and band intensities were quantitated with a Model 300A densitometer (Molecular Dynamics, Sunnyvale, Calif.).

CC/C(=C(\c1ccc(O)cc1)c1ccc(OCCN(C)C)cc1)c1ccccc1 [4(OH) tamoxifen]
inhibition of endothelial sprouting and associated ductal-alveolar morphogenesis (EIII8-HUVEC co-cultures [1]): dramatic inhibition

C[C@]12CC[C@@H]3c4ccc(O)cc4CC[C@H]3[C@@H]1CC[C@@H]2O [E2, 17 β-estradiol]
growth of endothelial cell-enriched spots and ductal-alveolar outgrowths (EIII8-HUVEC co-cultures [1]; 1 nM E2, 5-day co-cultures, vs control): enhanced | levels of Flk-1/KDR protein, E2-treated vs control (Flk-1/KDR; 1 nM E2, 5 day-old cultures): equally up-regulated | regulation of Flk-1/KDR protein levels (Flk-1/KDR): no longer regulated | effect on EIII8 3D tubular structures (tube thickening, central spaces, connecting bridges) (EIII8 cells; 1 or 10 nM E2, 5 days, vs control cultures): marked thickening of tubes; also recorded: induce formation of several new central spaces and connecting bridges | stimulation of triculture growth [2]: failed to stimulate growth | increase in triculture growth ([3]; apparent only with 10 nM E2, 6 days, p<0.03): marginal increase | regulation of IL-8 expression (IL-8; 1 nM E2, days 5 and 10): did not appear to regulate IL-8 expression | increase in growth over control cultures (EIII8-HUVEC co-cultures [4]; 10 nM E2, day 5, p<0.01): 2 fold | concentrations giving dose dependent induction of growth (EIII8-HUVEC co-cultures [4]; day 5, MTS and trypan blue assays): > 1 nM | increase in VEGF165 levels over control cultures (VEGF165; 1 nM E2, day 5, densitometry): 4 fold | increase in VEGF165 levels over control cultures (VEGF165; 1 nM E2, day 10, densitometry): 8 fold | influence on growth and proliferation of endothelial or epithelial cells (MCF10A-HUVEC co-cultures; addition of E2 (1 nM), day 5): no significant influence

C[C@]12CC[C@@H]3c4ccc(O)cc4C[C@@H](CCCCCCCCC[S+]([O-])CCCC(F)(F)C(F)(F)F)[C@H]3[C@@H]1CC[C@@H]2O (some centres unmarked) [ICI 182,780]
inhibition of endothelial sprouting and associated ductal-alveolar morphogenesis (EIII8-HUVEC co-cultures [1]): dramatic inhibition; also recorded: specific inhibition | regulation of Flk-1/KDR protein levels (Flk-1/KDR): no longer regulated | reduction in Flk-1/KDR protein levels (Flk-1/KDR; 100-fold molar excess, 5-day old cultures): about 80% | blocking of E2-induced effects on EIII8 3D structures (epithelial multilayering) (EIII8 cells; 1 nM E2 plus 100-fold molar excess of antiestrogen, 5 days): blocked; also recorded: significantly inhibits | inhibition of growth in vehicle- and E2-treated cultures ([3]; 100 nM ICI 182,780 alone or with 1 nM E2, 6 days, p<0.001): significantly inhibited; also recorded: significantly decreased | effect on IL-8 levels (IL-8; 100-fold molar excess over 1 nM E2, days 5 and 10): no effect | effect on growth promoting effects of E2 (EIII8-HUVEC co-cultures [4]; 100-fold molar excess over 1 nM E2, day 5, p<0.001): abolished | amount of wild type ER [5]: significantly reduced | E2-stimulated VEGF165 levels (VEGF165; ICI 182,780 at 100-fold molar excess over 1 nM E2): returned to control levels | formation of endothelial cell-enriched spots / endothelial cell growth (MCF10A-HUVEC co-cultures; 1 nM E2 plus 100-fold molar excess ICI 182,780, day 5, MCF10A epithelium maintained): abolished; also recorded: specific inhibition
